Data as given in article PMC9860125 (The Journal of Biological Chemistry, 2022).

What was measured:
[1] = molecular target: T1, EmrE (Escherichia coli, UniProt P23895); experiment: SSME transport with purified EmrE in proteoliposomes, empty liposome control; assay type: biochemical; set-up: WT-EmrE in POPC proteoliposomes
[2] = molecular target: T1, EmrE; experiment: ITC (pH […] ºC); NMR pH titration; ZZ-exchange NMR; assay type: binding; set-up: WT EmrE, antiparallel homodimer, in DMPC/DHPC isotropic bicelles
[3] = molecular target: Glu14 (UniProt position 14, GAILAEVIGTT); experiment: NMR; settings: 45 °C; not stated (no added salt beyond the buffer components); 20 mM sodium acetate, 50 mM Mes, 50 mM Mops, 100 mM bicine, 2 mM TCEP, 0.01% sodium azide; Saturated with 2H-dTPP2+ (at least 4x the EmrE monomer concentration). Alternating access is in slow exchange, and the substrate is associated asymmetrically with subunit A.

T1 sequence (P23895 whole entry): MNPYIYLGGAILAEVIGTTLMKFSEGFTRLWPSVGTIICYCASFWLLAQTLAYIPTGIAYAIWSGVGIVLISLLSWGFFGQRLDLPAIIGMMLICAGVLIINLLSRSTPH

| Molecule | SSME transport with purified EmrE in proteoliposomes, empty liposome control [1] | Kd [2] | other results |
| --- | --- | --- | --- |
| CC[n+]1c(-c2ccccc2)c2cc(N)ccc2c2ccc(N)cc21 [Eth+, ethidium] | observed signal under these conditions is transport dependent on the protein as empty controls show minimal signal | – | – |
| c1ccc(C(c2ccccc2)(c2ccccc2)c2ccc([P+](c3ccccc3)(c3ccccc3)c3ccccc3)cc2)cc1 [dTPP+, triphenyl[4-(triphenylmethyl)phenyl]phosphonium iodide] | – | 9.3 ± 0.3 µM | – |
| EmrE (small multidrug resistance transporter) (Escherichia coli) | – | – | pKa [3]: 6.2 ± 0.1 |
| c1ccc([P+](c2ccccc2)(c2ccccc2)c2ccc([P+](c3ccccc3)(c3ccccc3)c3ccccc3)cc2)cc1 [dTPP2+, 1,4-phenylenebis(triphenylphosphonium) bromide] | – | 8.1 ± 0.4 µM | – |
| C[n+]1ccc(-c2cc[n+](C)cc2)cc1 [MV2+, methyl viologen] | Addition of the substrate gradient resulted in increased net flux compared with drug-free conditions, consistent with net symport | – | – |
